This is an account of results in patent US20130274258A1, “CARBAZOLE AND CARBOLINE DERIVATIVES, AND PREPARATION AND THERAPEUTIC APPLICATIONS THEREOF” (PHILIP MORRIS PRODUCTS S.A., priority 2010, published 2013).

Bounds are passed on as bounds.

The first assay relates to Jurkat cells. In words: Jurkat cell viability, resazurin (Alamar Blue) assay. The conditions noted are these: Homo sapiens; Jurkat cells, 22 h then resazurin 4 h; three experiments in duplicates; read-out: IC50. In kind it is cell-based. On the procedure: The compounds were tested for pharmacological activity. In each of the tests, each compound was tested at […] in duplicates. […] The percentage of response relative to the DMSO control was then calculated for the mean value of the duplicates of each test. The values of the three tests were finally averaged and the standard deviations calculated.
Jurkat cells (10'000 cells/well) were incubated in the presence of various concentrations of compounds, doxorubicin or staurosporine. Twenty-two hours later, cells were incubated with resazurin (20 μg/ml) for 4 hours and fluorescence was measured at 590 nm.
A general note: The colour change of resazurin is a common sign of viable cells or microbes.
One may read the IC50 as the concentration at which inhibition is half-maximal. `Cc1nccc2c1[nH]c1ccc(-c3cccc(N(C)C)c3)cc12` [Example C5, 6-(3-(N,N-dimethylamino)phenyl)-1-methyl-9H-pyrido[3,4-b]indole]: the IC50 was 11.5 µM.

Regarding `Cc1nccc2c1[nH]c1ccc(-c3cncnc3)cc12` [Example C8, 6-(pyrimidin-5-yl)-1-methyl-9H-pyrido[3,4-b]indole], the IC50 stood at 27.8 µM.

On to `Cc1ccccc1-c1ccc2[nH]c3c(C)nccc3c2c1` [Example C9, 6-(2-methylphenyl)-1-methyl-9H-pyrido[3,4-b]indole], for which the half-inhibitory concentration (IC50) came out at 41.8 µM.

Consider `C=CCn1c2ccc(-c3ccc4c(c3)CCO4)cc2c2ccnc(C)c21` [Example C11], for which the IC50 was more than 10 µM.

Consider `Cc1nccc2c3cc(-c4ccc5c(c4)CCO5)ccc3n(Cc3ccccc3)c12` [Example C12], for which the half-inhibitory concentration (IC50) is more than 10 µM.

For the molecule `CCCCCn1c2ccc(-c3ccc4c(c3)CCO4)cc2c2ccnc(C)c21` [Example C13], the half-maximal inhibitory concentration (IC50) is more than 10 µM.

With `Cc1nccc2c1[nH]c1ccc(-c3ccccc3F)cc12` [Example E4, 6-(2-fluorophenyl)-1-methyl-9H-pyrido[3,4-b]indole], the IC50 was found to be 4.07 µM.

In the case of `Cc1nccc2c1[nH]c1ccc(-c3cccc(F)c3)cc12` [Example E5, 6-(3-fluorophenyl)-1-methyl-9H-pyrido[3,4-b]indole], the IC50 was 0.567 µM.

Regarding `Cc1cc(C)cc(-c2ccc3[nH]c4c(C)nccc4c3c2)c1` [Example E8, 6-(3,5-dimethylphenyl)-1-methyl-9H-pyrido[3,4-b]indole], the IC50 is 0.128 µM.

For the molecule `Cc1nccc2c1[nH]c1ccc(-c3cccc(CN)c3)cc12` [Example E10, 6-(3-(aminomethyl)phenyl)-1-methyl-9H-pyrido[3,4-b]indole], the concentration for half-maximal inhibition (IC50) came out at 0.988 µM.

In the case of `CC(=O)NCc1cccc(-c2ccc3[nH]c4c(C)nccc4c3c2)c1` [Example E11, 6-(3-(acetamidomethyl)phenyl)-1-methyl-9H-pyrido[3,4-b]indole], the IC50 was 0.034 µM.

As for `Cc1nccc2c1[nH]c1ccc(-c3cccc(C(N)=O)c3)cc12` [Example E12, 6-(3-aminocarbonylphenyl)-1-methyl-9H-pyrido[3,4-b]indole], the IC50 is 0.046 µM.

On to `CC(=O)c1cccc(-c2ccc3[nH]c4c(C)nccc4c3c2)c1` [Example E13, 6-(3-acetylphenyl)-1-methyl-9H-pyrido[3,4-b]indole], for which the IC50 was found to be 2.03 µM.

With `COC(=O)c1cccc(-c2ccc3[nH]c4c(C)nccc4c3c2)c1` [Example E14, 6-(3-methoxycarbonylphenyl)-1-methyl-9H-pyrido[3,4-b]indole], the half-maximal inhibitory concentration (IC50) turned out to be 7.23 µM.

Turning to `CC(=O)OCc1cccc(-c2ccc3[nH]c4c(C)nccc4c3c2)c1` [Example E15, 6-(3-(acetoxymethyl)phenyl)-1-methyl-9H-pyrido[3,4-b]indole], the IC50 worked out at 0.034 µM.

For `CC(=O)OCc1cc(COC(C)=O)cc(-c2ccc3[nH]c4c(C)nccc4c3c2)c1` [Example E16, 6-(3,5-bis(acetoxymethyl)phenyl)-1-methyl-9H-pyrido[3,4-b]indole], the IC50 was found to be 0.052 µM.

Turning to `Cc1nccc2c1[nH]c1ccc(-c3cccc(O)c3)cc12` [Example E17, 6-(3-hydroxyphenyl)-1-methyl-9H-pyrido[3,4-b]indole], the half-maximal inhibitory concentration (IC50) amounted to 0.195 µM.

`Cc1nccc2c1[nH]c1ccc(-c3cccc(CO)c3)cc12` [Example E18, 6-(3-hydroxymethylphenyl)-1-methyl-9H-pyrido[3,4-b]indole]: the concentration for half-maximal inhibition (IC50) worked out at 0.046 µM.

As to `Cc1nccc2c1[nH]c1ccc(-c3cccc(C(C)O)c3)cc12` (stereo not drawn) [Example E19, 6-(3-(1-hydroxyethyl)phenyl)-1-methyl-9H-pyrido[3,4-b]indole], the IC50 amounted to 1.4 µM.

Turning to `Cc1nccc2c1[nH]c1ccc(-c3ccc(C#N)cc3)cc12` [Example E22, 6-(4-cyanophenyl)-1-methyl-9H-pyrido[3,4-b]indole], the 50% inhibitory concentration (IC50) turned out to be 5 µM.

On to `Cc1nccc2c1[nH]c1ccc(-c3cccc(CC#N)c3)cc12` [Example E23, 6-(3-cyanomethylphenyl)-1-methyl-9H-pyrido[3,4-b]indole], for which the IC50 was determined as 0.064 µM.

With `Cc1nccc2c1[nH]c1ccc(-c3cc(C#N)ccc3F)cc12` [Example E24, 6-(5-cyano-2-fluorophenyl)-1-methyl-9H-pyrido[3,4-b]indole], the IC50 was 0.968 µM.

In the case of `Cc1nccc2c1[nH]c1ccc(-c3ccc4[nH]ccc4c3)cc12` [Example E26, 6-(1H-indol-5-yl)-1-methyl-9H-pyrido[3,4-b]indole], the IC50 came to 0.374 µM.

On to `Cc1nccc2c1[nH]c1ccc(-c3cccc(Cc4nn[nH]n4)c3)cc12` [Example E27, 6-(((2H-tetrazol-5-yl)methyl)phenyl)-1-methyl-9H-pyrido[3,4-b]indole], for which the IC50 was determined as 2.2 µM.

Consider `Cc1ccc(-c2ccc3[nH]c4c(C)nccc4c3c2)o1` [Example E28, 6-(5-methylfuran-2-yl)-1-methyl-9H-pyrido[3,4-b]indole], for which the IC50 stood at 0.13 µM.

`Cc1nccc2c1[nH]c1ccc(-c3ccc4c(c3)OCO4)cc12` [Example E30, 6-(benzo[d][1,3]dioxol-5-yl)-1-methyl-9H-pyrido[3,4-b]indole]: the IC50 amounted to 0.49 µM.

As to `Cc1nccc2c1[nH]c1ccc(-c3ccc(C=O)o3)cc12` [Example E31, 6-(5-formylfuran-2-yl)-1-methyl-9H-pyrido[3,4-b]indole], the IC50 is 2.29 µM.

With `Cc1nccc2c1[nH]c1ccc(-c3ccc(CO)o3)cc12` [Example E32, 6-(5-hydroxymethylfuran-2-yl)-1-methyl-9H-pyrido[3,4-b]indole], the half-maximal inhibitory concentration (IC50) was 3.66 µM.

Take `Cc1nccc2c1[nH]c1ccc(-c3cccc(N)c3)cc12` [Example E33, 6-(3-aminophenyl)-1-methyl-9H-pyrido[3,4-b]indole]: the IC50 came out at 0.096 µM.

With `Cc1nccc2c1[nH]c1ccc(-c3cccc(NC=O)c3)cc12` [Example E34, 6-(3-formamidophenyl)-1-methyl-9H-pyrido[3,4-b]indole], the IC50 worked out at 0.028 µM.

As to `FC(F)(F)c1nccc2c1[nH]c1ccc(-c3ccc4c(c3)CCO4)cc12` [Example E36, 6-(2,3-dihydrobenzofuran-5-yl)-1-trifluoromethyl-9H-pyrido[3,4-b]indole], the IC50 came out at 0.096 µM.

On to `CCc1nccc2c1[nH]c1ccc(-c3ccc4c(c3)CCO4)cc12` [Example E37, 6-(2,3-dihydrobenzofuran-5-yl)-1-ethyl-9H-pyrido[3,4-b]indole], for which the IC50 turned out to be 0.004 µM.

With `CCCc1nccc2c1[nH]c1ccc(-c3ccc4c(c3)CCO4)cc12` [Example E38, 6-(2,3-dihydrobenzofuran-5-yl)-1-propyl-9H-pyrido[3,4-b]indole], the IC50 came out at 0.23 µM.

As to `CC(C)c1nccc2c1[nH]c1ccc(-c3ccc4c(c3)CCO4)cc12` [Example E39, 6-(2,3-dihydrobenzofuran-5-yl)-1-isopropyl-9H-pyrido[3,4-b]indole], the IC50 was 0.302 µM.

As for `CCc1nccc2c1[nH]c1ccc(-c3cccc(COC)c3)cc12` [Example E40, 6-(3-(methoxymethyl)phenyl)-1-ethyl 9H-pyrido[3,4-b]indole], the 50% inhibitory concentration (IC50) was 2.88 µM.

In the case of `CCNC(=O)NCc1cccc(-c2ccc3[nH]c4c(C)nccc4c3c2)c1` [Example E41], the IC50 was 1.25 µM.

Consider `Cc1nccc2c1[nH]c1ccc(-c3cccc(CN(C)C)c3)cc12` [Example E42, N,N-dimethyl-1-(3-(1-methyl-9H-pyrido[3,4-b]indol-6-yl)phenyl)methanamine], for which the concentration for half-maximal inhibition (IC50) came to 0.85 µM.

Regarding `CCc1nccc2c1[nH]c1ccc(-c3cccc(COCCOC)c3)cc12` [Example E43, 6-(3-((2-methoxyethoxy)methyl)phenyl)-1-ethyl 9H-pyrido[3,4-b]indole], the IC50 came out at 0.34 µM.

With `Cc1nccc2c1[nH]c1ccc(-c3cccc(CNS(C)(=O)=O)c3)cc12` [Example E45], the IC50 amounted to 0.052 µM.

For the molecule `Cc1nccc2c1[nH]c1ccc(-c3cccc(S(N)(=O)=O)c3)cc12` [Example E46, 3-(1-methyl-9H-pyrido[3,4-b]indol-6-yl)benzenesulfonamide], the half-maximal inhibitory concentration (IC50) was found to be 0.26 µM.

`Cc1nccc2c1[nH]c1ccc(-c3cccc(S(=O)(=O)NCCO)c3)cc12` [Example E47, N-(2-hydroxyethyl)-3-(1-methyl-9H-pyrido[3,4-b]indol-6-yl)benzenesulfonamide]: the half-maximal inhibitory concentration (IC50) is 1.21 µM.

Still in this assay, the particulars now being: Jurkat cells, 22 h then resazurin 4 h; three experiments in duplicates.
`Cc1nccc2c1[nH]c1ccc(-c3ccc4ccccc4c3)cc12` [Example C1, 6-(naphthalen-2-yl)-1-methyl-9H-pyrido[3,4-b]indole]: the “IC50 (μM)” value was “not active”.

With `Cc1nccc2c1[nH]c1ccc(-c3ccc(Cl)cc3)cc12` [Example C2, 6-(4-chlorophenyl)-1-methyl-9H-pyrido[3,4-b]indole], the “IC50 (μM)” value is on record as “not active”.

On to `Cc1nccc2c1[nH]c1ccc(-c3ccc(C(F)(F)F)cc3)cc12` [Example C3, 6-(4-(trifluoromethyl)phenyl)-1-methyl-9H-pyrido[3,4-b]indole], for which the “IC50 (μM)” value is listed as “not active”.

Take `COc1ccc(-c2ccc3[nH]c4c(C)nccc4c3c2)cc1` [Example C4, 6-(4-methoxyphenyl)-1-methyl-9H-pyrido[3,4-b]indole]: the “IC50 (μM)” value is on record as “not active”.

Consider `Cc1nccc2c1[nH]c1ccc(-c3cccc(C(=O)O)c3)cc12` [Example C6, 6-(3-carboxyphenyl)-1-methyl-9H-pyrido[3,4-b]indole], for which the “IC50 (μM)” value is on record as “not active”.

Take `Cc1nccc2c1[nH]c1ccc(-c3cccc(CC(=O)O)c3)cc12` [Example C7, 6-(3-carboxymethylphenyl)-1-methyl-9H-pyrido[3,4-b]indole]: the “IC50 (μM)” value is given as “not active”.

Take `Cc1nccc2c1[nH]c1ccc(-c3ccsc3)cc12` [Example C10, 6-(thiophen-3-yl)-1-methyl-9H-pyrido[3,4-b]indole]: the “IC50 (μM)” value is recorded as “not active”.
